Test results: ChEMBL document CHEMBL5338712, “Influence of chain length on the anticancer activity of the antimicrobial peptide CAMEL with fatty acid modification” (Eur J Med Chem, 2022)
Values after ≈ are worked out from the molar mass of the structure shown. Active and inactive are the calls of the source. The rule behind the calls is not given here. Where a SMILES comes first, the peptide text is derived from it. The star is where a group is joined. Palmitoyl = CCCCCCCCCCCCCCCC(=O)*; Lauroyl = CCCCCCCCCCCC(=O)*; Decanoyl = CCCCCCCCCC(=O)*; Octanoyl = CCCCCCCC(=O)*; Cbz = O=C(OCc1ccccc1)*; Butyryl = CCCC(=O)*; CH2F = FC*

Legend:
B16-F10 [1] = experiment: Antiproliferative activity against mouse B16-F10 cells assessed as inhibition of cell viability by measuring ATP level at 10 uM measured for 4 to 24 hrs; format: functional, cell-based; conditions: time 4-24 hrs
B16-F10 [2] = experiment: Induction of cell membrane disruption in mouse B16-F10 cells at 20 uM measured for 30 mins by PI staining based microplate reader assay
B16-F10 [3] = experiment: Cytotoxicity against mouse B16-F10 cells assessed as reduction in cell viability at 1.25 to 20 uM measured after 24 hrs by MTT assay; format: functional, cell-based; conditions: dose 1.25-20 µM
[4] = Toxicity in C57BL/6 […] mouse implanted with mouse B16-F10 cells assessed as animal death administered intratumorally; format: cell-based; conditions: in vivo, other, route it(Intratumoral)
B16-F10 [5] = experiment: Induction of apoptosis in mouse B16-F10 cells assessed as activation of caspase-3 incubated for 24 hrs by microplate reader analysis; format: functional, cell-based
B16-F10 [6] = experiment: Membrano-lytic activity in mouse B16-F10 cell membrane measured after 1 hr by LDH leakage assay; format: cell-based; conditions: dose 1.25-20 µM
B16-F10 [7] = experiment: Membrano-lytic activity in mouse B16-F10 cell membrane at 20 uM measured at 1 hr by LDH leakage assay; format: cell-based
B16-F10 [8] = experiment: Cytotoxicity against mouse B16-F10 cells assessed as reduction in cell viability measured after 1 hrs by MTT assay; format: functional, cell-based; conditions: dose 1.25-20 µM
B16-F10 [9] = experiment: Induction of mitochondrial membrane potential loss in mouse B16-F10 cells assessed as decrease in fluorescence intensity at 10 uM measured at 0.5 to 4 hrs by flow cytometry analysis; format: functional, cell-based; conditions: time 0.5-4 hrs
trypsin = trypsin (Homo sapiens, UniProt P07477+P07478+P35030); experiment: Stability of compound assessed as trypsin (unknown origin)-mediated compound degradation measured upto 6 hrs by RP-HPLC analysis; format: ADME, protein assay; conditions: trypsin (enzyme solution), read-out: Drug degradation
[10] = Self-assembly behavior of compound in saline solution assessed as critical micelle concentration by spectrophotometer analysis; format: physicochemical; conditions: buffer
B16-F10 [11] = experiment: Induction of necroptosis in mouse B16-F10 cells assessed as cell death at 5 to 20 uM measured for 4 to 24 hrs in presence of Nec-1; format: functional, cell-based; conditions: dose 5-20 µM, time 4-24 hrs
Escherichia coli = experiment: Antibacterial activity against Escherichia coli ATCC 25922 assessed as reduction in bacterial growth measured for 18 hrs by serial dilution method; format: functional
B16-F10 [12] = experiment: Induction of morphological changes in mouse B16-F10 cells assessed as cell rounding at 20 uM incubated for 30 mins by microscopic analysis; format: functional, cell-based
B16-F10 [13] = experiment: Induction of necrotic cell death in mouse B16-F10 at 10 uM measured after 1 to 24 hrs; format: functional, cell-based; conditions: time 1-24 hrs
B16-F10 [14] = experiment: Induction of apoptosis in mouse B16-F10 cells assessed as decrease in ATP level; format: functional, cell-based
B16-F10 [15] = experiment: Induction of mitochondrial membrane potential loss in mouse B16-F10 cells at 10 uM by flow cytometry analysis; format: functional, cell-based; conditions: time 0.5-4 hrs, TDE = time-dependent effect
B16-F10 [16] = experiment: Cytotoxicity against mouse B16-F10 cells assessed as induction of cell death measured for 4 to 24 hrs by MTT assay; format: functional, cell-based; conditions: time 4-24 hrs
B16-F10 [17] = experiment: Induction of ROS production in mouse B16-F10 cells at 10 uM measured for 0.5 to 4 hrs by MitoSOX red dye based microplate reader analysis; format: functional, cell-based; conditions: time 0.5-4 hrs
Staphylococcus aureus = experiment: Antibacterial activity against Staphylococcus aureus ATCC […] assessed as reduction in bacterial growth measured for 18 hrs by serial dilution method; format: functional
B16-F10 [18] = experiment: Induction of cell cycle arrest in mouse B16-F10 cells assessed as accumulation at G0/G1 phase at 10 uM and measured after 24 hrs PI staining based by flow cytometry; format: functional
B16-F10 [19] = experiment: Induction of ROS production in mouse B16-F10 cells at 10 uM measured for 0.5 to 4 hrs by DCFH-DA dye based microplate reader analysis; format: functional, cell-based; conditions: time 0.5-4 hrs
B16-F10 [20] = experiment: Induction of morphological changes in mouse B16-F10 cells assessed as cell bursting at 20 uM incubated for 30 mins by microscopic analysis; format: functional, cell-based
B16-F10 [21] = experiment: Induction of cell membrane disruption in mouse B16-F10 cells at 20 uM by PI staining based microplate reader assay; conditions: time 30.0 min, TDE = time-dependent effect
B16-F10 [22] = experiment: Induction of morphological changes in mouse B16-F10 cells assessed as cell swelling at 20 uM incubated for 30 mins by microscopic analysis; format: functional, cell-based
B16-F10 [23] = experiment: Membrano-lytic activity in mouse B16-F10 cell membrane at 1.25 to 20 uM measured after 4 hr by LDH leakage assay; format: cell-based; conditions: dose 1.25-20 µM
B16-F10 [24] = experiment: Antitumor activity against mouse B16-F10 cells implanted in intratumorally dosed C57BL/6 mouse assessed as reduction in tumor volume administered for 3 days by vernier caliper method; format: functional, organism-based; conditions: time 3.0 day
B16-F10 [25] = experiment: Induction of necroptosis in mouse B16-F10 cells assessed as increase in ROS level; format: functional, cell-based
B16-F10 [26] = experiment: Membrano-lytic activity in mouse B16-F10 cell membrane at 1.25 to 20 uM measured after 1 hr by LDH leakage assay; format: cell-based; conditions: dose 1.25-20 µM
B16-F10 [27] = experiment: Cytotoxicity against mouse B16-F10 cells assessed as reduction in cell viability at 1.25 to 20 uM by MTT assay; format: functional, cell-based; conditions: dose 1.25-20 µM, time 1-72 hrs, TDE = time-dependent effect
B16-F10 [28] = experiment: Cytotoxicity against mouse B16-F10 cells assessed as reduction in cell viability at 1.25 to 20 uM measured after 72 hrs by MTT assay; format: functional, cell-based; conditions: dose 1.25-20 µM
B16-F10 [29] = experiment: Disruption of membrane integrity in mouse B16-F10 cells at 10 uM measured at 4 to 24 hrs by propidium iodide staining based laser scanning microscopic analysis; format: cell-based; conditions: time 4-24 hrs
B16-F10 [30] = experiment: Membrano-lytic activity in mouse B16-F10 cell membrane at 20 uM by LDH leakage assay; format: cell-based; conditions: time 0.5-4 hrs, TDE = time-dependent effect
B16-F10 [31] = experiment: Membrano-lytic activity in mouse B16-F10 cell membrane at 20 uM measured after 0.5 hr by LDH leakage assay; format: cell-based
B16-F10 [32] = experiment: Disruption of membrane integrity in mouse B16-F10 cells at 10 uM measured after 1 hr by propidium iodide staining based laser scanning microscopic analysis; format: cell-based
B16-F10 [33] = experiment: Membrano-lytic activity in mouse B16-F10 cell membrane at 20 uM measured at 0.5 to 4 hrs by LDH leakage assay; format: cell-based; conditions: time 0.5-4 hrs
B16-F10 [34] = experiment: Induction of mitochondrial membrane potential loss in mouse B16-F10 cells assessed as decrease in fluorescence intensity at 10 uM measured at 4 hrs by flow cytometry analysis; format: functional, cell-based

Compound	Activity (B16-F10 [1])	Activity (B16-F10 [2])	Activity (B16-F10 [3])	Activity [4]	Activity (B16-F10 [5])	Activity (B16-F10 [6])	Activity (B16-F10 [8])	Activity (B16-F10 [9])	metabolised at 6 h (trypsin)	CMC [10]	Activity (B16-F10 [11])	MIC (Escherichia coli)	Activity (B16-F10 [12])	Activity (B16-F10 [13])	Activity (B16-F10 [14])	Activity (B16-F10 [16])	Activity (B16-F10 [17])	MIC (Staphylococcus aureus)	Activity (B16-F10 [18])	Activity (B16-F10 [19])	other results
CCCCCCCCCCCC(=O)N[C@@H](CCCCN)C(=O)N[C@@H](Cc1c[nH]c2ccccc12)C(=O)N[C@@H](CCCCN)C(=O)N[C@@H](CC(C)C)C(=O)N[C@@H](Cc1ccccc1)C(=O)N[C@@H](CCCCN)C(=O)N[C@@H](CCCCN)C(=O)N[C@H](C(=O)NCC(=O)N[C@@H](C)C(=O)N[C@H](C(=O)N[C@@H](CC(C)C)C(=O)N[C@@H](CCCCN)C(=O)N[C@H](C(=O)N[C@@H](CC(C)C)C(N)=O)C(C)C)C(C)C)[C@@H](C)CC (Lauroyl-KWKLFKKIGAVLKVL-NH2)	Active	Active	Active	Non-Toxic	inactive	Dose-Dependent Effect	Dose-Dependent Effect	Active	18.9%	7.16 µM	Active	8 µM (≈ 15.6 µg/mL)	Active	Active	inactive	inactive	Active	8 µM (≈ 15.6 µg/mL)	inactive	Active	Activity (B16-F10 [7]): Active; Activity (B16-F10 [15]): Tde; Activity (B16-F10 [20]): Active; Activity (B16-F10 [21]): Tde; Activity (B16-F10 [22]): Active; Activity (B16-F10 [23]): Active; Activity (B16-F10 [24]): Active; Activity (B16-F10 [25]): Active
CCCCCCCCCCCCCCCC(=O)N[C@@H](CCCCN)C(=O)N[C@@H](Cc1c[nH]c2ccccc12)C(=O)N[C@@H](CCCCN)C(=O)N[C@@H](CC(C)C)C(=O)N[C@@H](Cc1ccccc1)C(=O)N[C@@H](CCCCN)C(=O)N[C@@H](CCCCN)C(=O)N[C@H](C(=O)NCC(=O)N[C@@H](C)C(=O)N[C@H](C(=O)N[C@@H](CC(C)C)C(=O)N[C@@H](CCCCN)C(=O)N[C@H](C(=O)N[C@@H](CC(C)C)C(N)=O)C(C)C)C(C)C)[C@@H](C)CC (Palmitoyl-KWKLFKKIGAVLKVL-NH2)	Active	Active	Active	Non-Toxic	inactive	Dose-Dependent Effect	Dose-Dependent Effect	Active	8.7%	4.95 µM	Active	> 128 µM	Active	Active	inactive	inactive	Active	> 128 µM	inactive	Active	Activity (B16-F10 [26]): Active; Activity (B16-F10 [27]): Tde; Activity (B16-F10 [28]): Active; Activity (B16-F10 [15]): Tde; Activity (B16-F10 [29]): Active; Activity (B16-F10 [20]): Active; Activity (B16-F10 [22]): Active; Activity (B16-F10 [24]): Active; Activity (B16-F10 [25]): Active; Activity (B16-F10 [30]): Tde
H-KWKLFKKIGAVLKVL-NH2	Active	Active	Active	Non-Toxic	inactive	Dose-Dependent Effect	Dose-Dependent Effect	Active	100%	–	Active	32 µM	Active	Active	inactive	inactive	Active	4 µM	inactive	Active	Activity (B16-F10 [31]): Active; Activity (B16-F10 [32]): Active; Activity (B16-F10 [20]): Active; Activity (B16-F10 [33]): inactive; Activity (B16-F10 [21]): Tde; Activity (B16-F10 [22]): Active; Activity (B16-F10 [23]): Active; Activity (B16-F10 [24]): Active; Activity (B16-F10 [34]): inactive; Activity (B16-F10 [25]): Active
CCCCCCCC(=O)N[C@@H](CCCCN)C(=O)N[C@@H](Cc1c[nH]c2ccccc12)C(=O)N[C@@H](CCCCN)C(=O)N[C@@H](CC(C)C)C(=O)N[C@@H](Cc1ccccc1)C(=O)N[C@@H](CCCCN)C(=O)N[C@@H](CCCCN)C(=O)N[C@H](C(=O)NCC(=O)N[C@@H](C)C(=O)N[C@H](C(=O)N[C@@H](CC(C)C)C(=O)N[C@@H](CCCCN)C(=O)N[C@H](C(=O)N[C@@H](CC(C)C)C(N)=O)C(C)C)C(C)C)[C@@H](C)CC (Octanoyl-KWKLFKKIGAVLKVL-NH2)	–	–	Active	–	–	Dose-Dependent Effect	Dose-Dependent Effect	–	70.2%	–	–	8 µM (≈ 15.2 µg/mL)	–	–	–	–	–	4 µM (≈ 7.59 µg/mL)	–	–	Activity (B16-F10 [26]): Active
CCCCCCCCCC(=O)N[C@@H](CCCCN)C(=O)N[C@@H](Cc1c[nH]c2ccccc12)C(=O)N[C@@H](CCCCN)C(=O)N[C@@H](CC(C)C)C(=O)N[C@@H](Cc1ccccc1)C(=O)N[C@@H](CCCCN)C(=O)N[C@@H](CCCCN)C(=O)N[C@H](C(=O)NCC(=O)N[C@@H](C)C(=O)N[C@H](C(=O)N[C@@H](CC(C)C)C(=O)N[C@@H](CCCCN)C(=O)N[C@H](C(=O)N[C@@H](CC(C)C)C(N)=O)C(C)C)C(C)C)[C@@H](C)CC (Decanoyl-KWKLFKKIGAVLKVL-NH2)	–	–	–	–	–	–	–	–	–	32.61 µM	–	–	–	–	–	–	–	–	–	–	–
COC(=O)C[C@H](NC(=O)[C@H](C)NC(=O)[C@@H](NC(=O)OCc1ccccc1)C(C)C)C(=O)CF (Cbz-Val-Ala-Asp(OMe)-CH2F)	–	–	–	–	–	–	–	–	–	–	–	–	–	–	–	Active	–	–	–	–	–
CCCC(=O)N[C@@H](CCCCN)C(=O)N[C@@H](Cc1c[nH]c2ccccc12)C(=O)N[C@@H](CCCCN)C(=O)N[C@@H](CC(C)C)C(=O)N[C@@H](Cc1ccccc1)C(=O)N[C@@H](CCCCN)C(=O)N[C@@H](CCCCN)C(=O)N[C@H](C(=O)NCC(=O)N[C@@H](C)C(=O)N[C@H](C(=O)N[C@@H](CC(C)C)C(=O)N[C@@H](CCCCN)C(=O)N[C@H](C(=O)N[C@@H](CC(C)C)C(N)=O)C(C)C)C(C)C)[C@@H](C)CC (Butyryl-KWKLFKKIGAVLKVL-NH2)	–	–	Active	–	–	Dose-Dependent Effect	Dose-Dependent Effect	–	100%	–	–	4 µM (≈ 7.36 µg/mL)	–	–	–	–	–	2 µM (≈ 3.68 µg/mL)	–	–	Activity (B16-F10 [26]): Active
